Our source for the Kd values is PMC3324652 (2012).

The target of this test is cannabinoid receptor type 2 (CB2) (Homo sapiens, UniProt P34972). Nature of the test: radioligand saturation binding.
Chain of cannabinoid receptor type 2 (CB2) (P34972 whole entry): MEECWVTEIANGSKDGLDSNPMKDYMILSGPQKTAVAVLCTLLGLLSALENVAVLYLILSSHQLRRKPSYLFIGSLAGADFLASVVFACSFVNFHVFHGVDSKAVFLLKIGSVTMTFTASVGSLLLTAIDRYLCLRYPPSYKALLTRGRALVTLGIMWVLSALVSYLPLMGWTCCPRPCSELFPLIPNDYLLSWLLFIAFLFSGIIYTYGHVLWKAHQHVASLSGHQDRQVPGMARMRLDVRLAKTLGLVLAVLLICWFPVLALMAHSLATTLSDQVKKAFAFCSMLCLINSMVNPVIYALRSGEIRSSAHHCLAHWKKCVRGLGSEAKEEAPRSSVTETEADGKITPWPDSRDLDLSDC

Regarding `CCCCOc1c(OC)ccc2cc(C(=O)NCc3ccc(F)cc3)c(=O)[nH]c12` [[18F]-14, 7-methoxy-8-butoxy-2-oxo-1,2-dihydroquinoline-3-carboxylic acid-(4-fluorobenzyl)amide], the dissociation constant Kd amounted to 3.4 nM.
